As usually defined, the Papp A→B is how fast a substance crosses the layer from the apical side. Low readings indicate slow passage, high ones fast passage. A word on the efflux ratio: it is a quotient of directional permeabilities that is used to spot active efflux.

SMILES strings stand for the structures. Read-outs that look alike come from different tables or passages of the source. A value given as a limit tells only on which side of the number the result lay.

In one series the test system is NCI-H1975. The series is described as follows: Cytotoxicity in vitro against NCI-H1975. In kind it is cell-based. The source says: (§1) The cytotoxic activity of 7-Ethyl camptothecin is not negatively affected when tumor cells NCI-H1975 was transfected with drug transporters p-Glycoprotein (P-gp) and breast cancer resistant protein (BCRP) which is in strong contrast to SN38.

Series [1] in a line: Pharmacokinetics: tumor and plasma levels in 786-O tumor bearing mice. The format is in vivo, NMRI nu/nu mice. Particulars: for Tumor/Plasma enrichment factor (ratio/ratio): relative to direct administration of 7-ethyl camptothecin. How it is done:
(§2) Tumor and plasma samples were collected at different time points and the levels of intact conjugate and of the toxophore 7-ethyl-camptothecin cleaved from the conjugate were determined.
For comparison, 1 mg/kg of 7-ethyl camptothecin was dissolved in a mixture of 5% aqueous dextrose/solutol/DMSO 85/10/5 and administered iv to female. 786-O tumor bearing NMRI nu/nu mice. Again tumor and plasma samples were collected at different time points and the levels of 7-ethyl-camptothecin were determined.
as §2

A short description of series [2]: Caco-2 flux assay for cellular permeability. The format is in vitro ADME. Particulars: human. How it is done:
(§3) The cell permeability of a substance can be investigated by means of in vitro testing in a flux assay using Caco-2 cells [M. D. Troutman and D. R. Thakker, Pharm. Res. 20 (8), 1210-1224 (2003)]. For this purpose. the cells were cultured for 15-16 days on 24-well filter plates. […] The samples were separated by HPLC (Agilent 1200. Böblingen. Germany) using reverse phase columns. […] 1716-1725 (2003)]. A substance was classified as actively transported when the ratio of Papp (B-A) to Papp (A-B) (efflux ratio) was >2 or <0.5.

In a further series the test system is P-gp. The series is described as follows: Cytotoxicity in vitro against NCI-H1975 transfected with P-gp. The format is cell-based. The note with it: human.
Excerpt: as §1

Another series has as its target P-gp (ABCB1) (Homo sapiens, UniProt P08183). Put plainly: in vitro. How it is done:
Many tumor cells express transporter proteins for drugs, and this frequently accompanies the development of resistance towards cytostatics.
The substrate properties of a substance for P-gp (ABCB1) were determined by means of a flux assay using LLC-PK1 cells which overexpress P-gp (L-MDR1 cells) [A. H. Schinkel et al., J. Clin. Invest. 96. 1698-1705 (1995)]. For this purpose. the LLC-PK1 cells or L-MDR1 cells were cultured on 96-well filter plates for 3-4 days. For determination of the permeation, the respective test substance, alone or in the presence of an inhibitor (such as ivermectin or verapamil, for example), was applied in a HEPES buffer to the cells either apically (A) or basally (B) and incubated for 2 hours. After ([…] and after 2 hours, samples were taken from the cis and trans compartments. The samples were separated by HPLC using reverse phase columns. The HPLC system was coupled via a Turbo Ion Spray Interface to a Triple Quadropol mass spectrometer API 3000 (Applied Biosystems Applera, Darmstadt, Germany). The permeability was evaluated on the basis of a Papp value, which was calculated using the formula published by Schwab et al. [D. Schwab et al. . . . J. Med. Chem. 46, 1716-1725 (2003)]. A substance was classified as P-gp substrate when the efflux ratio of Papp (B-A) to Papp (A-B) was >2.

In the next series the test system is BCRP. The series is described as follows: Cytotoxicity in vitro against NCI-H1975 transfected with BCRP. The note with it: human. In kind it is cell-based.
Excerpt: as §1

The nature of series [3]: Stability in human plasma. The note with it: 37° C. The format is in vitro ADME. How it is done: 1 mg of the test compound was solved in 0.5 ml acetonitrile/dimethylsulfoxide 1:1. For complete dissolution the HPLC vial was shaken and sonicated. While vortexing 20 μl of this solution were added to 1 ml 37° C. warm plasma. After 0.17, 0.5, 1, 1.5, 2 and 4 hours the enzymatic reaction was stopped by adding 100 μl of the compound plasma solution to a vial containing 300 μl acetonitrile/buffer pH3 (80:20) at RT. The mixture was centrifuged at 5000 rpm for 10 minutes. The supernatant was analyzed by HPLC to determine the amount of the test compound and up to two byproducts. t(0) values result from a processed sample immediately taken after vortexing with plasma at RT. The peak areas (in percentage) were used for quantification.

The subject of the next series is 786-O cell line. The series is described as follows: Cytotoxicity in vitro (MTT) in the presence and absence of elastase, 786-O. The format is cell-based. The note with it: 72 h, MTT. The procedure: (§4) Cultivation of cells was performed according to standard procedures with the media recommended by the provider. The cells in a total volume of 100 μL were seeded in a 96-well plate with white bottom (#3610). After a 24 h incubation period at 37° C. and 5% CO2, the medium was changed by adding 90 μL fresh medium. The treatment starts by adding the test compound to the cells in 10 μl of culture medium. Concentrations from 10^−5 M to 10^−13 M in triplicates were chosen followed by an incubation at 37° C. and 5% carbon dioxide. One set of samples were only treated with the test compound whereas to an otherwise identically treated second set of samples also 10 nM elastase was pipetted. After 72 h. the proliferation is detected using the MTT assay (ATCC). At the end of the incubation period the MTT reagent is added to all samples for 4 h, followed by lysis of the cells overnight by addition of the detergent. The dye formed was detected at 570 nm. The proliferation of cells which were not treated with test substance but were otherwise identically treated was defined as the 100% value. (FIG. 1 and table 4).

The target in a further series is T1, αvβ3 receptor (Homo sapiens, UniProt P05106+P06756).
T1 construct: αvβ3 from human A375 cells was purified analogously to a procedure described by Wong et al; endogenous in cells; host or cells: human A375 cells (receptor purified from the cells)
Put plainly: αvβ3 binding test (echistatin SPA). The procedure: αvβ3 from human A375 cells was purified analogously to a procedure described by Wong et al. in Molecular Pharmacology 50, 529-537 (1996). In each case, 10 μL of αvβ3 (5 ng) in TBS PH 7.6, 2 mM CaCl2. 1 mM MgCl2. 1% n-octylglucopyranoside (Sigma): 10 μL of test substance in TBS pH 7.6. 0.1% DMSO and 45 μL of TBS pH 7.6. 2 mM CaCl2, 1 mM MgCl2, 1 mM MnCl2 were incubated at room temperature for 1 h. In each case, 25 μL of WGA SPA beads (Amersham, 4 mg/ml) and 10 μL of echistatin (0.1 μCi, Amersham, chloramine-T labelled) were then added. After 16 h at room temperature, the samples were measured in a scintillation measuring apparatus (Wallac 1450).

The subject of another series is HT29 cell line. The series is described as follows: Cytotoxicity in vitro (MTT) in the presence and absence of elastase, HT29. The format is cell-based. Particulars: 72 h. The procedure:
as §4

Another series concerns Caco-2 cells. The series is described as follows: Caco-2 flux assay for cellular permeability. In kind it is in vitro ADME. The procedure: as §3
(Passage across Caco-2 layers is used to estimate intestinal permeability.)

Another series deals with NCI-H1975-P-gp. Put plainly: Cytotoxicity in vitro against NCI-H1975 transfected with P-gp. In kind it is cell-based.
Excerpt: as §1

A further series relates to NCI-H1975-BCRP. The series is described as follows: Cytotoxicity in vitro against NCI-H1975 transfected with BCRP. In kind it is cell-based.
Excerpt: as §1

The mark [4] stands for this setting: Caco-2, Papp (B-A) to Papp (A-B).

Sequence of P-gp (ABCB1) (P08183 whole entry): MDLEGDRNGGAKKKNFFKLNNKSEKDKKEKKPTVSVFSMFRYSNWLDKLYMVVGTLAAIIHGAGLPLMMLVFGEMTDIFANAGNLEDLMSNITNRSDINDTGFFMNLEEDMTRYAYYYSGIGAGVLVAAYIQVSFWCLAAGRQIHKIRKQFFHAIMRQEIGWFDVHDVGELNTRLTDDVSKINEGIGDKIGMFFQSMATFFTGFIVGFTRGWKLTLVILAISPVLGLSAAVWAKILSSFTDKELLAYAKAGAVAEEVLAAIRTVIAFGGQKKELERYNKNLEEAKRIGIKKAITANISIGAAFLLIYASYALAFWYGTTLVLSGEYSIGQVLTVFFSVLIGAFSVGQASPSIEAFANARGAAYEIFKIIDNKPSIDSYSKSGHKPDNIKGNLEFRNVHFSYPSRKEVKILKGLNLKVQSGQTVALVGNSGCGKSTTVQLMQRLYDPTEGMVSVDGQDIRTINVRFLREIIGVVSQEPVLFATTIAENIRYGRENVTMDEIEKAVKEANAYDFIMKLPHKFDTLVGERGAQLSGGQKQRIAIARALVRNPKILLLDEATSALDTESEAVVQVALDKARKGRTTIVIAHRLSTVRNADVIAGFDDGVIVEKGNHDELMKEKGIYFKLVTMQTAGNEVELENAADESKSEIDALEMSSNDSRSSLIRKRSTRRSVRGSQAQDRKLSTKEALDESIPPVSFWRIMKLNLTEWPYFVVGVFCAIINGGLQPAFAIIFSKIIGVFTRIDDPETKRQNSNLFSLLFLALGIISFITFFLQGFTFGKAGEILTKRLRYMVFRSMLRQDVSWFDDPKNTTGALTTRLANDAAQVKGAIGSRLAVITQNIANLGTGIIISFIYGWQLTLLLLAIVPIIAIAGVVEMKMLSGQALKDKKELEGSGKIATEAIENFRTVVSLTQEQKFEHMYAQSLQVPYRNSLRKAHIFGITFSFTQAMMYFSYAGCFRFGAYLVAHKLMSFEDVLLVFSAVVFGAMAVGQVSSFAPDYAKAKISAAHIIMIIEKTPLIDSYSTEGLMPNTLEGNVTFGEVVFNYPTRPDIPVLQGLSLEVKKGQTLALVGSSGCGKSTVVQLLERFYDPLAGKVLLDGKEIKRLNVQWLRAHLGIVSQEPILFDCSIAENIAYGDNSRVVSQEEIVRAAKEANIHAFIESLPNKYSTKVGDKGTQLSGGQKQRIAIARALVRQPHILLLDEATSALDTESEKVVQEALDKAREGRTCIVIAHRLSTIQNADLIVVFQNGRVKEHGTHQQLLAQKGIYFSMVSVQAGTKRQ
T1 sequence (P06756 31-889 limits assumed): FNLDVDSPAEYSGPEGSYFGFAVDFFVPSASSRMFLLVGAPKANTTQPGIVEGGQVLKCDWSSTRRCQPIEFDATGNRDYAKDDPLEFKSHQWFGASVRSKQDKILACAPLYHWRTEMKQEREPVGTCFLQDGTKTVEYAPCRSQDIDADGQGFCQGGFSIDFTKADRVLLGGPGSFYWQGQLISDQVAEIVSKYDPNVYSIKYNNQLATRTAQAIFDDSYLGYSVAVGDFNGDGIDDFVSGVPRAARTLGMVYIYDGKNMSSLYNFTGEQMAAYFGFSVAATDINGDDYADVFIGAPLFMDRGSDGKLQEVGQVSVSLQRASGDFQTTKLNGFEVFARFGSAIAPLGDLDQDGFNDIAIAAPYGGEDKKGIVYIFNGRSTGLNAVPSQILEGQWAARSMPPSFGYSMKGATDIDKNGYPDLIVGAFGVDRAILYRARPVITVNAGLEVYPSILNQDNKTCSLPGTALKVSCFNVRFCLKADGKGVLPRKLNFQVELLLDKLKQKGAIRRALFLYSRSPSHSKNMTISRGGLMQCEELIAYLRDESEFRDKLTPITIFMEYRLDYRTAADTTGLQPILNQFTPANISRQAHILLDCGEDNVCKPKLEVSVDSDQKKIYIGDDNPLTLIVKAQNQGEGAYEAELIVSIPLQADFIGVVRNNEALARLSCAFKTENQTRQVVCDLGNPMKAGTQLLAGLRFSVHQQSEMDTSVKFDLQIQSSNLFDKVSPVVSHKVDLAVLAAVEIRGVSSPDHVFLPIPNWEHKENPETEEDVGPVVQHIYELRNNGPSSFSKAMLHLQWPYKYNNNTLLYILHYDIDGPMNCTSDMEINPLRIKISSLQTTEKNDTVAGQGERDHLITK
T1 sequence (P06756 891-1048 partner limits assumed): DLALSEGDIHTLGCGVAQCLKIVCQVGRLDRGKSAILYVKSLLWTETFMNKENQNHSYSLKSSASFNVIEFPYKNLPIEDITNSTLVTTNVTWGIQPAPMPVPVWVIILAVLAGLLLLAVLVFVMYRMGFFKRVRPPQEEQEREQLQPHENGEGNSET
T1 sequence (P05106 27-788): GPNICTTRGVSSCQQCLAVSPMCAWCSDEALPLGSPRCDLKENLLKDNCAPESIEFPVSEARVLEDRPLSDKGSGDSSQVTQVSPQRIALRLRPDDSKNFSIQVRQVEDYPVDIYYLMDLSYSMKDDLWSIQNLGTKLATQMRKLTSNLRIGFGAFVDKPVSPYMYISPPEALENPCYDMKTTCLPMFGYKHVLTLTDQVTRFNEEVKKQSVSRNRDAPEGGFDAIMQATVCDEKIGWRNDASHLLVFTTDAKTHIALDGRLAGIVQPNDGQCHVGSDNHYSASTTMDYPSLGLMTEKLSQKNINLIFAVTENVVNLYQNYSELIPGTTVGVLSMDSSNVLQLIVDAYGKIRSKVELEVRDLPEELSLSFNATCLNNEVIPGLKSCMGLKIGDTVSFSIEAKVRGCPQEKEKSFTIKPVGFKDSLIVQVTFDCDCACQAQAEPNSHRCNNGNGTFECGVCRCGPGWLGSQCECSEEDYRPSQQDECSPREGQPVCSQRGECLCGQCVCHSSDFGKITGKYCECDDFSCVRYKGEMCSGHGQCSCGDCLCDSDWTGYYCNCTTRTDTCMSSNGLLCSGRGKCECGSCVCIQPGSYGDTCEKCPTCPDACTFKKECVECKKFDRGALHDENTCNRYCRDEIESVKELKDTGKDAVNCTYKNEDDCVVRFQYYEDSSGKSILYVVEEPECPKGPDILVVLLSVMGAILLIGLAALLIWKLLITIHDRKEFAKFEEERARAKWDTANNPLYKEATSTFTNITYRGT

In the case of `CCc1c2c(nc3ccccc13)-c1cc3c(c(=O)n1C2)COC(=O)[C@]3(O)CC` [7-Ethyl-camptothecin, (4S)-4,11-diethyl-4-hydroxy-1H-pyrano[3′,4′:6,7]indolizino[1,2-b]quinoline-3,14(4 H,12H)-dione], the IC50 in the series with NCI-H1975 (Homo sapiens, NCI-H1975) turned out to be 0.019 µM; in the series with P-gp it was 0.034 µM; in the series on BCRP, 0.027 µM. Further, in [1] (mouse, tumor and plasma, 1 mg/kg, iv, female 786-O tumor bearing NMRI nu/nu mice, read-out: Tumor/Plasma ratio of 7-ethyl camptothecin), the Kp worked out at 0.6. In series [1], the “Tumor/Plasma enrichment factor (ratio/ratio)” value worked out at 1. The Papp A→B at 2 h came to 17.1 ×10⁻⁶ cm/s in [2] (Caco-2, 2 hours incubation) and 19.6 ×10⁻⁶ cm/s at P-gp (ABCB1) (pig, LLC-PK1). The efflux ratio at 2 h in series [2] (setting [4]) amounted to 1; at P-gp (ABCB1) (pig, LLC-PK1), 0.6. For the same molecule, the “stable in human plasma for” value in series [3] is “at least 4 hours”.

For the molecule `CCCNC(=O)Nc1cccc(S(=O)(=O)Nc2cccc([C@H](CC(=O)[O-])NC(=O)Nc3ccc(NC(=O)NCCOCCOCCOCCC(=O)N[C@@H](CC(=O)[O-])C(=O)N4CCC[C@H]4C(=O)N[C@H](C(=O)O[C@]4(CC)C(=O)OCc5c4cc4n(c5=O)Cc5c-4nc4ccccc4c5CC)C(C)C)cc3)c2)c1.[Na+].[Na+]` [Example 2, disodium (4S)-4,11-diethyl-3,14-dioxo-3,4,12,14-tetrahydro-1H-pyrano[3′,4′: 6,7]indolizino [1,2-b]quinolin-4-yl 1-{(2S)-2-(carboxylatomethyl)-17-[4-({[(1S)-2-carboxylato-1-{3-[({3-[(propyl-carbamoyl)amino]phenyl}sulfonyl)amino]phenyl}ethyl]carbamoyl}amino)anilino]-4,17-dioxo-7,10,13-trioxa-3,16-diazaheptadecan-1-oyl}-L-prolyl-L-valinate], the “Tumor/Plasma enrichment factor (ratio/ratio)” value in series [1] was found to be 2. Moreover, the IC50 was 0.00017 µM in the series with 786-O cell line (10 nM elastase, read-out: 786-O cell line IC50 w elastase); 0.268 µM with 786-O cell line (without elastase, read-out: 786-O cell line IC50 w/o elastase); 0.7 µM on αvβ3 receptor; 0.032 µM in the series on HT29 cell line (10 nM elastase, read-out: HT29 cell line IC50 w elastase); > 0.5 µM with HT29 cell line (without elastase, read-out: HT29 cell line IC50 w/o elastase).

Take `CCc1c2c(nc3ccc(O)cc13)-c1cc3c(c(=O)n1C2)COC(=O)[C@]3(O)CC` [SN38]: the IC50 is 0.045 µM with NCI-H1975, 0.141 µM with NCI-H1975-P-gp and 0.512 µM in the series on NCI-H1975-BCRP. Also, the “permeability Papp A->B” value in the series on Caco-2 cells (Caco-2, 2 hours incubation) was determined as 0.8 ×10⁻⁶ cm/s; in the series on Caco-2 cells (Caco-2, new data for SN38), 2 ×10⁻⁶ cm/s; on P-gp (ABCB1) (L-MDR1 cells (LLC-PK1 overexpressing P-gp)), 1 ×10⁻⁶ cm/s. For the same molecule, the efflux ratio with Caco-2 cells (setting [4]) is on record as 36; in the series with Caco-2 cells (Caco-2, new data for SN38) it was 9; on P-gp (ABCB1) (L-MDR1 cells, Papp (B-A) to Papp (A-B)) it was 16.

In the case of `CC[C@@]1(O)C(=O)OCc2c1cc1n(c2=O)Cc2cc3ccccc3nc2-1` [camptothecin], in series [3] (4 hours), the “extent of degradation in human plasma” value was “about 50%”.
